Patent US20250011288A1 (BRISTOL-MYERS SQUIBB COMPANY, priority 2021, published 2025)

Target: T1, human RXFP1 (Homo sapiens, UniProt Q9HBX9)
T1 construct: expressed in transfected cells
T1 sequence (Q9HBX9 1-757): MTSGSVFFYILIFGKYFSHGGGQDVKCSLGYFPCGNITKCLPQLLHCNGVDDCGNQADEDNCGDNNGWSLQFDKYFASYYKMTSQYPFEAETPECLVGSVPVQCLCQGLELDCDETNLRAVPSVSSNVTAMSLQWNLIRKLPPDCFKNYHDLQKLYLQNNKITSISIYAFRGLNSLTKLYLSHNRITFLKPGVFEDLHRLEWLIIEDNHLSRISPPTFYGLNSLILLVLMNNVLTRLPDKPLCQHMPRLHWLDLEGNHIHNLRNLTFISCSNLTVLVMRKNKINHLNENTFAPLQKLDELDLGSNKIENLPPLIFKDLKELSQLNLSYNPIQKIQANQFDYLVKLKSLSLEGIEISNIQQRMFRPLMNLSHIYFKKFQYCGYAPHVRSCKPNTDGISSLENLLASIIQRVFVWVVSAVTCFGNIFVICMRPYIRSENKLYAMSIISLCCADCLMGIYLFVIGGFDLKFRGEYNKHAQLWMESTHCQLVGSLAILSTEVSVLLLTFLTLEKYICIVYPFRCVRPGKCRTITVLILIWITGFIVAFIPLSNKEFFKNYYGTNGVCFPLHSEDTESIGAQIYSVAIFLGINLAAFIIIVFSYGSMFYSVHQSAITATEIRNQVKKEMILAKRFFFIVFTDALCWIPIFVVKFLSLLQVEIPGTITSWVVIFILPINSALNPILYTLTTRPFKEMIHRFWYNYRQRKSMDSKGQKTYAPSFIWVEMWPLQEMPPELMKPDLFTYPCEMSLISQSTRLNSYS
Assay: human RXFP1 (hRXFP1) HEK293 cAMP assay (HTRF)
Type: cell-based
Settings: HEK293 cells stably expressing human RXFP1, 30 min at room temperature
How it was run: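 HEK293 cells stably expressing human RXFP1 (1500 cells/well) in HBSS/20 mM HEPES/0.05% BSA/0.5 mM IBMX, treated with compound (0.010 nM–50 µM final, 2% DMSO) for 30 min at room temperature. Intracellular cAMP read by HTRF; potency from 4-parameter logistic fit of cAMP versus concentration.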

Row | SMILES | EC50 [nM]
1 | CC(O)C1CC2ON=C(c3cc4c(c(C(=O)N[C@H]5[C@@H](C(=O)Nc6ccc(F)c(C(F)(F)F)c6)[C@H]6CC[C@@H]5/C6=C\C5CC5)c3)OC(C)(C)C4)C2C1 (stereo partly drawn) [Example 175, N-[(1R,2R,3S,4R, 7Z)-7-(cyclopropyl-methylidene)-3-{[4-fluoro-3-(trifluoromethyl)phenyl]carbamoyl}bicyclo[2.2.1]heptan-2-yl]-5-[5-(1-hydroxyethyl)-3aH,4H,5H,6H, 6aH-cyclopenta[d][1,2]oxazol-3-yl]-2,2-dimethyl-2,3-dihydro-1-benzofuran-7-carboxamide] | 7.8
2 | CC(O)C1CC2ON=C(c3cc4c(c(C(=O)N[C@H]5[C@@H](C(=O)N[C@H](C)C6(C)CC6)[C@H]6CC[C@@H]5/C6=C\C5CC5)c3)OC(C)(C)C4)C2C1 (stereo partly drawn) [Example 176, N-[(1R,2R,3S,4R, 7Z)-7-(cyclopropyl-methylidene)-3-{[(1R)-1-(1-methylcyclopropyl)ethyl]carbamoyl}bicyclo[2.2.1]heptan-2-yl]-5-[5-(1-hydroxyethyl)-3aH,4H,5H,6H, 6aH-cyclopenta[d][1,2]oxazol-3-yl]-2,2-dimethyl-2,3-dihydro-1-benzofuran-7-carboxamide] | 6
3 | COc1ncc(C2=NOC3CC(C)(CO)CC23)cc1C(=O)N[C@H]1[C@@H](C(=O)N[C@H](C)C2(C)CC2)[C@H]2CC[C@@H]1/C2=C\C1CC1 (stereo partly drawn) [Example 177, N-[(1R,2R,3S,4R, 7Z)-7-(cyclopropyl-methylidene)-3-{[(1R)-1-(1-methylcyclo-propyl)ethyl]carbamoyl}bicyclo[2.2.1]heptan-2-yl]-5-[5-(hydroxymethyl)-5-methyl-3aH,4H,5H,6H, 6aH-cyclopenta[d][1,2]oxazol-3-yl]-2-methoxypyridine-3-carboxamide] | 3.3
4 | COc1ncc(C2=NOC3CN(CCS(C)(=O)=O)CC23)cc1C(=O)N[C@H]1[C@@H](C(=O)Nc2ccc(F)c(C(F)(F)F)c2)[C@H]2CC[C@@H]1/C2=C\C1CC1 (stereo partly drawn) [Example 178, N-[(1R,2R,3S,4R, 7Z)-7-(cyclopropyl-methylidene)-3-{[4-fluoro-3-(trifluoromethyl)phenyl]carbamoyl}bicyclo[2.2.1]heptan-2-yl]-5-[5-(2-methanesulfonylethyl)-3aH,4H,5H,6H, 6aH-pyrrolo[3,4-d][1,2]oxazol-3-yl]-2-methoxypyridine-3-carboxamide] | 1.6
5 | CC(C)(O)CN1CC2ON=C(c3cc4c(c(C(=O)N[C@H]5[C@@H](C(=O)Nc6ccc(F)c(C(F)(F)F)c6)[C@H]6CC[C@@H]5/C6=C\C5CC5)c3)OC(C)(C)C4)C2C1 (stereo partly drawn) [Example 179, N-[(1R,2R,3S,4R, 7Z)-7-(cyclopropyl-methylidene)-3-{[4-fluoro-3-(trifluoromethyl)phenyl]carbamoyl}bicyclo[2.2.1]heptan-2-yl]-5-[5-(2-hydroxy-2-methylpropyl)-3aH,4H,5H,6H, 6aH-pyrrolo[3,4-d][1,2]oxazol-3-yl]-2,2-dimethyl-2,3-dihydro-1-benzofuran-7-carboxamide] | 6.5
6 | COc1ncc(C2=NOC3CN(CC(O)C(F)(F)F)CC23)cc1C(=O)N[C@H]1[C@@H](C(=O)Nc2ccc(F)c(C(F)(F)F)c2)[C@H]2CC[C@@H]1/C2=C\C1CC1 (stereo partly drawn) [Example 180, N-[(1R,2R,3S,4R, 7Z)-7-(cyclopropyl-methylidene)-3-{[4-fluoro-3-(trifluoromethyl)phenyl]carbamoyl}bicyclo[2.2.1]heptan-2-yl]-2-methoxy-5-[5-(3,3,3-trifluoro-2-hydroxypropyl)-3aH,4H,5H,6H, 6aH-pyrrolo[3,4-d][1,2]oxazol-3-yl]pyridine-3-carboxamide] | 4.3
7 | CNC(=O)O[C@@H](c1ccc(F)c(-c2cnc(OC)c(C(=O)N[C@@H]3C4CCC(/C4=C/C4CC4)[C@@H]3C(=O)Nc3ccc(F)c(C(F)(F)F)c3)c2)c1)C(F)(F)F (stereo partly drawn) [Example 182, (1S)-1-[3-(5-{[(2R,3S,7Z)-7-(cyclopropyl-methylidene)-3-{[4-fluoro-3-(trifluoromethyl)phenyl]carbamoyl}bicyclo[2.2.1]heptan-2-yl]carbamoyl}-6-methoxypyridin-3-yl)-4-fluorophenyl]-2,2,2-trifluoroethyl N-methylcarbamate] | 2.6
